Data on three molecules can be found in publication PMC8539612, “Enzymatic Synthesis of Novel Vitexin Glucosides” (Molecules, 2021).

Values after ≈ are worked out from the molar mass of the structure shown.

Series [1] can be described thus: Determination of aqueous solubility (vortex 1 h at 25 °C, centrifugation, filtration, HPLC). In kind it is physicochemical. As to conditions: for solubility at 1 h: thermodynamic from solid; for Aqueous solubility compared with vitexin: at different pH. The method, then:
HPLC was performed with an Agilent® 1100 series HPLC system (Santa Clara, CA, USA) equipped with a gradient pump (Waters 600, Waters, Milford, MA, USA). The stationary phase was a C18 column (Sharpsil H-C18, 5 μm, 4.6 i.d. × 250 mm, Sharpsil, Bei-jing, China), and the mobile phase was 1% acetic acid in water (A) and methanol (B). The elution condition was a linear gradient from 0 min with 40% B to 20 min with 70% B; an isocratic elution from 20 min to 25 min with 70% B; a linear gradient from 25 min with 70% B to 28 min with 40% B; and an isocratic elution from 28 min to 35 min with 40% B. All elutions were performed at a flow rate of 1 mL/min. The sample volume was 10 µL. The detection condition was set at 254 nm.
The aqueous solubility of vitexin and its glucoside derivatives was examined as follows. Each compound was vortexed in double-deionized H2O, PB at pH 6, or pH 8, for 1 h at 25 °C. The mixture was centrifuged at 10,000× g for 30 min at 25 °C. The supernatant was filtered through a 0.2 µm nylon membrane, mixed with an equal volume of methanol, and analyzed by HPLC. The concentration of the tested compounds was determined on the basis of their peak areas, using calibration curves prepared by HPLC analyses of authentic samples.

On the set-up of series [2]: method as in PMID 32292045. As to conditions: poor bioavailability; cited from earlier work.
[3] abbreviates: PB (buffer), aqueous buffer, PB at pH 6, 25 °C.
Setting [4] is: PB (buffer), aqueous buffer, PB at pH 8, 25 °C.
The mark [5] stands for this setting: double-deionized water, water, Deionized H2O at pH 7, 25 °C.

The term solubility denotes the concentration that dissolves in the medium under given conditions. Low values mean little dissolved substance, high ones much dissolved substance. On to `O=c1cc(-c2ccc(OC3OC(CO)C(O)C(O)C3O)cc2)oc2c(C3OC(CO)C(O)C(O)C3O)c(O)cc(O)c12` (stereo not drawn) [Vitexin-4′-O-β-glucoside (1), vitexin-4′-O-β-glucoside], for which the entries for the “Fold increase in aqueous solubility relative to vitexin in deionized H2O (normalized to 1)” value in series [1] (Deionized H2O at pH 7), in series [1] (PB at pH 6) and in series [1] (PB at pH 8) were 25.3, 25.3 and 48.4, respectively. The solubility at 1 h in series [1] (setting [3]) was found to be 943 ± 212 µg/mL (≈ 1590 µM); in series [1] (setting [4]) it was 1800 ± 229 µg/mL (≈ 3030 µM); in series [1] (setting [5]), 941 ± 68.7 µg/mL (≈ 1580 µM). Moreover, the “Aqueous solubility compared with vitexin” value in series [1] is on record as “higher than that of vitexin”.
In the case of `O=c1cc(-c2ccc(O)cc2)oc2c(C3OC(CO)C(O)C(O)C3O)c(O)cc(OC3OC(CO)C(O)C(O)C3O)c12` (stereo not drawn) [Vitexin-5-O-β-glucoside (2), vitexin-5-O-β-glucoside], the solubility at 1 h in series [1] (setting [3]) turned out to be 444 ± 45 µg/mL (≈ 747 µM); in series [1] (setting [4]), 767 ± 21.6 µg/mL (≈ 1290 µM); in series [1] (setting [5]), 735 ± 51.7 µg/mL (≈ 1240 µM). In addition, the entries for the “Fold increase in aqueous solubility relative to vitexin in deionized H2O (normalized to 1)” value in series [1] (PB at pH 6) and in series [1] (PB at pH 8) were 11.9 and 20.6, respectively. Further, the “Aqueous solubility compared with vitexin” value in series [1] is “higher than that of vitexin”.
For the molecule `O=c1cc(-c2ccc(O)cc2)oc2c([C@@H]3O[C@H](CO)[C@@H](O)[C@H](O)[C@H]3O)c(O)cc(O)c12` [Vitexin, apigenin-8-C-glucoside], the “Fold increase in aqueous solubility relative to vitexin in deionized H2O (normalized to 1)” value is 1 in series [1] (Deionized H2O at pH 7), 0.2 in series [1] (PB at pH 6) and 4.2 in series [1] (PB at pH 8). Moreover, the solubility at 1 h in series [1] (setting [3]) came to 7.1 ± 1.2 µg/mL (≈ 16.4 µM); in series [1] (setting [4]), 157 ± 3.1 µg/mL (≈ 364 µM); in series [1] (setting [5]), 37.2 ± 2.8 µg/mL (≈ 86 µM). For the same molecule, in series [2], the “Absorption in the gastrointestinal tract” value is listed as “approximately 5%”.
